Entries after “also recorded” stand apart in the source; their conditions may differ. Where only a bound is given, the exact number is not on record here.

The results in this text go back to patent US5770613A, “Telomerase inhibitors” (Geron Corporation, priority 1995, dated 1998).

For test [1], the target named is T1, telomerase (Homo sapiens, UniProt O14746).
T1 construct: preferably a cellular extract or other preparation containing telomerase; endogenous in cells
As to the kind of experiment: Inhibition of telomerase activity (IC50). The conditions noted are these: approximate values (Table 2). The test is classed as biochemical.

Test [2] deals with OVCAR-5 tumor cells. Description: Human tumor xenograft model in nude mice, tumor mass. The test is classed as in vivo. The method, then: In vivo testing was also performed using a mouse xenograft model in which OVCAR-5 tumor cells were grafted onto nude mice. […] In contrast, mice treated with a control (DMSO) are expected to have tumor masses that continue to increase.
A human tumor xenograft model in which OVCAR-5 tumor cells were grafted into nude mice was constructed using standard techniques and materials. The mice were divided into two groups. One group was treated intraperitoneally with Compound V. The other group was treated with a control comprising DMSO and phosphate buffer solution (PBS). The average tumor mass for mice in each group was determined periodically following the xenograft using standard methods and materials.
Background: Xenograft models place foreign cells or tissue in a host animal.

The target of test [3] is T1, telomerase. Description: specificity in IMR-90, OVCAR-5 and SK-OV-3 cell samples (Topoisomerase II, Single-Strand Binding Protein, Terminal Transferase). The test is classed as cell-based. The following applies: cell samples dosed at one quarter of the IC50 for telomerase, versus Topoisomerase II. Here is the method: In on experiment, Compound V was administered to IMR-90, OVCAR-5, and SK-OV-3 cell samples at a concentration one quarter that of its IC50 for telomerase. The effects of Compound V on the activity of Topoisomerase II, Single-Strand Binding Protein, and Terminal Transferase were then determined using standard methodologies.

Test [4] concerns SK-OV-3 cells. As to the kind of experiment: Long-term exposure of cell colonies, effect on growth. Type of test: cell-based. The conditions noted are these: 5 μM, added every second day; versus DMSO control. The method, then: (§1) Colonies of the ovarian tumor cell lines OVCAR-5, SK-OV-3 and IMR-90 cells were prepared using standard methods and materials. In one test, the colonies were prepared by seeding 15-centimeter dishes with about 10^6 cells in each dish. The dishes were incubated to allow the cell colonies to grow to about 80% confluence, at which time each of the colonies was divided into two groups. One group was exposed to a subacute dose of Compound V (5 μM) 4-8 hours after plating following the split; the other group was exposed to a DMSO control.
(§2) Each group was then allowed to continue to divide, and the groups were split evenly again (near confluence). The same number of cells were seeded for continued growth. The compound or control was added every second day to the samples at the same concentration delivered initially (5 μM). […] No effect was seen on SK-OV-3 cells.

Test [5] relates to OVCAR-5 cells. The test is described as above. The test is classed as cell-based. The conditions noted are these: 5 μM, added every second day; versus DMSO control. The method, then: as §1, §2
For test [6], the system named is IMR-90 cells. Description: Long-term exposure of cell colonies, induction of senescence. The test is classed as cell-based. The following applies: 5 μM, added every second day; versus DMSO control. Here is the method: as §1, §2
Test [7] deals with Topoisomerase II. As to the kind of experiment: Enzyme-mediated DNA cleavage assay (Topoisomerase II targeting / cleavable complex formation). Type of test: biochemical. The method, then: Compound V was tested for its ability to target Topoisomerase II in a standard enzyme-mediated DNA cleavage assay. The well known anti-tumor agent VP-16 was used as a positive control. […] The amount of linear DNA was proportional to the concentration of Compound V used in the experiment.

The test system of test [8] is IMR-90. As to the kind of experiment: XTT assay for cytotoxicity. The following applies: Homo sapiens, 72 hours, 3 μM to 1,000 μM, read-out: LD50 (the source's name). Type of test: cell-based. Here is the method: (§3) The XTT assay for cytotoxicity was performed using the ovarian tumor cells lines IMR-90, OVCAR-5 and SK-OV-3. Cells from the normal human cell line BJ were used as a control. The cell lines used in the assay were exposed to Compound V of the invention for 72 hours at concentrations ranging from 3 μM to 1,000 μM. During this period, the optical density (OD) of the samples was determined for light at 540 nanometers (nm).
For orientation: Tetrazolium assays rely on reduction of a dye to a coloured formazan, in cell work by metabolically active cells.

The test system of test [9] is SK-OV-3. Description: XTT assay for cytotoxicity. Type of test: cell-based. The following applies: Homo sapiens, 72 hours, 3 μM to 1,000 μM, read-out: LD50 (the source's name). The method, then: as §3
Test [10] concerns OVCAR-5. Description: XTT assay for cytotoxicity. Type of test: cell-based. The following applies: Homo sapiens, 72 hours, 3 μM to 1,000 μM, read-out: LD50 (the source's name). Here is the method: as §3
For test [11], the system named is Topoisomerase II. As to the kind of experiment: Specificity screen versus telomerase. The test is classed as biochemical. The following applies: from IC50 screening. From the text: (§4) Compound V was screened for activity (IC50) against telomerase and several enzymes having nucleic acid binding or modifying activities related to telomerase using standard techniques. The enzymes screened included Telomerase, Topoisomerase II, Terminal Transferase and Single-Stranded DNA Binding Protein (SSB).

The test system of test [12] is Terminal Transferase. Description: Specificity screen versus telomerase. Type of test: biochemical. The conditions noted are these: from IC50 screening.
Source text: as §4

Test [13] concerns Single-Stranded DNA Binding Protein (SSB). As to the kind of experiment: Specificity screen versus telomerase. The test is classed as biochemical. The following applies: from IC50 screening.
Source text: as §4

T1 sequence (O14746 whole entry): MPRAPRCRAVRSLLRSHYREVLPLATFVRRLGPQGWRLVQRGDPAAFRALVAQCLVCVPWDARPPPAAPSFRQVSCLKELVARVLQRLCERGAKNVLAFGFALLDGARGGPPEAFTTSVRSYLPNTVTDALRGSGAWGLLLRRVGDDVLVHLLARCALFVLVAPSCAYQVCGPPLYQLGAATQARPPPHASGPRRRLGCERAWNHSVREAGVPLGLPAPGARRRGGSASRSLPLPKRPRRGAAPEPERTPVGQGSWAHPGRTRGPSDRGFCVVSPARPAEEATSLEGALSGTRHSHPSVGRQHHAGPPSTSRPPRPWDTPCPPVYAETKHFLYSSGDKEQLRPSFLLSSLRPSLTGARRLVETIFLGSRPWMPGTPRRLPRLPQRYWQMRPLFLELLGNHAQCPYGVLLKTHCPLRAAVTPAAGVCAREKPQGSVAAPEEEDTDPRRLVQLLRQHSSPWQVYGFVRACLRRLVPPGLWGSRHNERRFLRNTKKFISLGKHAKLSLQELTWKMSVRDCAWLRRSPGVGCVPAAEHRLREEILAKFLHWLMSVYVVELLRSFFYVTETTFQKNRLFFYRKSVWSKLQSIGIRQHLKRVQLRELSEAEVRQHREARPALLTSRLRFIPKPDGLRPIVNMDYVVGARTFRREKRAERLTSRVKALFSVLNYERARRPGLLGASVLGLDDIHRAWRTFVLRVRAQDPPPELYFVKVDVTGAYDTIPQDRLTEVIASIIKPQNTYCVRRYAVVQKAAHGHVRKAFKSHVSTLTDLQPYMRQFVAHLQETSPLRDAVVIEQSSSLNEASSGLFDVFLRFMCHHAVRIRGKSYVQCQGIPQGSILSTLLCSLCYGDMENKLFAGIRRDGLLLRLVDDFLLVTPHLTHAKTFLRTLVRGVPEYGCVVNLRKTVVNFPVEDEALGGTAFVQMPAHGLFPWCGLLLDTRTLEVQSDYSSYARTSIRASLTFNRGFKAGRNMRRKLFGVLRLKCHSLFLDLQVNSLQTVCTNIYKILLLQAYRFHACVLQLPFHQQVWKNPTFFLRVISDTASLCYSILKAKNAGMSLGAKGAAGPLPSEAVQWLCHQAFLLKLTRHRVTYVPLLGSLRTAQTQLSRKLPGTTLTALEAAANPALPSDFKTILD

Compound `N#Cc1ccc(C=O)nc1SCc1ccc(CSc2nc(C=O)ccc2C#N)cc1` [Compound XIX] gave an IC50 in test [1] of 5 µM.

The compound `Cc1cc(CSc2nc(C=O)ccc2C#N)c(C)cc1CSc1nc(C=O)ccc1C#N` [Compound XXIII] returned an IC50 in test [1] of 7 µM.

In turn, `N#Cc1ccc(C=O)nc1SCc1cc2ccccc2cc1CSc1nc(C=O)ccc1C#N` [Compound XXVI] gave an IC50 in test [1] of 6 µM.

In [1], `N#Cc1ccc(C=O)nc1SCc1ccccc1-c1ccccc1CSc1nc(C=O)ccc1C#N` [Compound XXIV] came in with an IC50 of under 3.2 µM.

In turn, `CC1(C)CCC(C)(C)c2cc(CSc3nc(C=O)ccc3C#N)ccc21` [VII] came in with an IC50 in test [1] of 8 µM.

In [1], `N#Cc1ccc(C=O)nc1SCc1cccc(CSc2nc(C=O)ccc2C#N)c1` [Compound XVII] displayed an IC50 of under 3.2 µM.

`N#Cc1ccc(C=O)nc1SCc1cccc2cccc(CSc3nc(C=O)ccc3C#N)c12` [Compound XXVII] came in with an IC50 in [1] of under 3.2 µM.

For `N#Cc1ccc(C=O)nc1SCC(=O)c1ccc(Cl)c(Cl)c1` [Compound X], the IC50 in [1] stood at 10.9 µM.

Turning to `N#Cc1ccc(C=O)nc1SCC=CCSc1nc(C=O)ccc1C#N` [Compound XXXV], the IC50 in test [1] is 10 µM.

The compound `N#Cc1ccc(C=O)nc1SCc1ccccc1CSc1nc(C=O)ccc1C#N` [Compound XVIII] registered an IC50 in test [1] of 6 µM.

As for `N#Cc1ccc(C=O)nc1SCC(=O)c1ccc(Cl)cc1` [Compound XII], the IC50 in test [1] stood at 15.1 µM.

Turning to `Cc1c(C)c(C)c(CSc2nc(C=O)ccc2C#N)c(C)c1C` [III], the IC50 in test [1] turned out to be 9 µM.

Consider `N#Cc1ccc(C=O)nc1SCc1cc(CSc2nc(C=O)ccc2C#N)c(CSc2nc(C=O)ccc2C#N)cc1CSc1nc(C=O)ccc1C#N` [XXXIII], for which the IC50 in test [1] is under 3.2 µM.

With `N#Cc1ccc(C=O)nc1SCC(=O)c1ccc(Cl)cc1Cl` [Compound XI], in test [1], the IC50 was 27 µM.

In turn, `N#Cc1ccc(C=O)nc1SCc1c(Cl)c(Cl)c(CSc2nc(C=O)ccc2C#N)c(Cl)c1Cl` [Compound XXVIII] had an IC50 in test [1] of under 3.2 µM.

The compound `Cc1cc(C)c(CSc2nc(C=O)ccc2C#N)cc1CSc1nc(C=O)ccc1C#N` [Compound XV] came in with an IC50 in test [1] of under 3.2 µM.

In the case of `Cc1c(C)c(CSc2nc(C=O)ccc2C#N)c(C)c(CSc2nc(C=O)ccc2C#N)c1C` [Compound XXII], the IC50 in test [1] worked out at 4 µM.

`Cc1cc(C)c(CSc2nc(C=O)ccc2C#N)c(C)c1CSc1nc(C=O)ccc1C#N` [Compound XVI] gave an IC50 in [1] of under 3.2 µM.

For `N#Cc1ccc(C=O)nc1SCC#CCSc1nc(C=O)ccc1C#N` [Compound XXXVI], the IC50 in test [1] was 5 µM.

`N#Cc1ccc(C=O)nc1SCc1cc(Br)ccc1-c1ccc(Br)cc1CSc1nc(C=O)ccc1C#N` [Compound XXV] had an IC50 in test [1] of under 3.2 µM.

As for `N#Cc1ccc(C=O)nc1SCc1ccc(Cl)c(Cl)c1` [Compound V], the tumor growth entry in [2] (10 mg/(kg.day), intraperitoneal) is “not affected”. In test [2] (25 mg/(kg.day), intraperitoneal), the “increase in tumor weight” value is reported as “practically ceased after about 50 days”. The “tumor mass over time” value in test [2] (average, after increase for a period following initial dosing) was “began to level with continuing treatment”. The “tumor growth as compared to vehicle” value in test [2] (intraperitoneal, p<0.05, unpaired t-test) was “statistically significant slowing of tumor growth”. Moreover, the “specificity for telomerase (factor)” value in [3] was “about 5”. The IC50 was found to be 4.5 µM in test [1], 5 µM in [8], 10 µM in test [9] and 15 µM in test [10]. The effect on cells entry in [4] is given as “No effect”. Also, in [5], the “effect on cell growth” value is listed as “small effect”. In addition, the “induction of senescence earlier than DMSO control” value in [6] is recorded as “approximately 5 period doublings”. Further, in test [7] (VP-16 as positive control), the “Topoisomerase II-mediated DNA cleavage (linear DNA in agarose gel)” value was “targeted Topoisomerase II”. Moreover, the “cleavable complex formation in Topoisomerase II, level of activity versus adriamycin and mitoxantrone” value in test [7] (compared with adriamycin and mitoxantrone) was “greater than the well-known anti-tumor agents adriamycin and mitoxantrone; also recorded: stronger Topoisomerase II-targeting antitumor agent than the known Topoisomerase II-targeting agents adriamycin and mitoxantrone”. The “inhibitory activity with respect to Topoisomerase II” value in test [7] (qualitative statement) is “display inhibitory activity with respect to Topoisomerase II; also recorded: demonstrate inhibitory activity with respect to Topoisomerase II”. In test [7] (relative to VP-16), the “Topoisomerase II activity relative to VP-16” value is reported as “one fifth the activity of VP-16”. The “lower specificity for Topoisomerase II as compared to telomerase” value in [11] is listed as at least 5 fold. The “lower specificity for Terminal Transferase as compared to telomerase” value in [12] is recorded as at least 5 fold. In test [13], the “lower specificity for Single-Stranded DNA Binding Protein (SSB) as compared to telomerase” value is reported as at least 5 fold.

Turning to `Cc1c(CSc2nc(C=O)ccc2C#N)c(C)c(CSc2nc(C=O)ccc2C#N)c(C)c1CSc1nc(C=O)ccc1C#N` [Compound XXXI], the IC50 in test [1] was under 3.2 µM.

On to `N#Cc1ccc(C=O)nc1SCc1ccc(C(F)(F)F)cc1` [IV], for which the IC50 in test [1] came out at 18 µM.

Consider `N#Cc1ccc(C=O)nc1SCc1ccc(Cl)s1` [Compound IX], for which the IC50 in test [1] was determined as 5 µM.

In test [1], `Cc1c(C)c(C)c(CSc2nc(C=O)ccc2C#N)c(CSc2nc(C=O)ccc2C#N)c1C` [Compound XX] had an IC50 of under 3.2 µM.

In test [1], `CCc1c(CSc2nc(C=O)ccc2C#N)ccc2c1C(C)(C)CCC2(C)C` [VIII] returned an IC50 of 21 µM.

In test [1], `N#Cc1ccc(C=O)nc1SCc1c(Cl)cccc1Cl` [VI] showed an IC50 of 7 µM.

In test [1], `N#Cc1ccc(C=O)nc1SCc1ccc2ccccc2c1CSc1nc(C=O)ccc1C#N` [Compound XXX] returned an IC50 of 7 µM.

In the case of `N#Cc1ccc(C=O)nc1SCc1ccc(CSc2nc(C=O)ccc2C#N)c(CSc2nc(C=O)ccc2C#N)c1CSc1nc(C=O)ccc1C#N` [XXXII], the IC50 in test [1] was under 3.2 µM.

`N#Cc1ccc(C=O)nc1SCc1c2ccccc2c(CSc2nc(C=O)ccc2C#N)c2ccccc12` [Compound XXIX] came in with an IC50 in test [1] of 7 µM.

Regarding `N#Cc1ccc(C=O)nc1SCc1cc(Cl)c(CSc2nc(C=O)ccc2C#N)cc1Cl` [Compound XXI], the IC50 in test [1] was under 3.2 µM.

In the case of `N#Cc1ccc(C=O)nc1SCCCCSc1nc(C=O)ccc1C#N` [Compound XXXIV], the IC50 in test [1] amounted to 7 µM.

The compound `N#Cc1ccc(C=O)nc1OCc1ccc(Cl)c(Cl)c1` [Compound XIII] had an IC50 in test [1] of 12.8 µM.
